Source: publication PMC6386617 (Molecular cell, 2018)

Columns and labels:
human eIF4A1 (WT) [1] = biological target: human eIF4A1 (WT) (Homo sapiens, UniProt P60842, F163L/I199M); assay: UV crosslinking of γ […]-ATP; format: biochemical; details: 10 μM protein, 0.1 μM ATP, 37 °C (crosslinking); labelled compound
human eIF4A1 (WT) [2] = biological target: human eIF4A1 (WT) (Homo sapiens, UniProt P60842); assay: UV crosslinking of γ […]-ATP; format: biochemical; details: 10 μM protein, 0.1 μM ATP, 37 °C (crosslinking); labelled compound
Sequence of human eIF4A1 (WT) (Homo sapiens, UniProt P60842) (P60842 2-406): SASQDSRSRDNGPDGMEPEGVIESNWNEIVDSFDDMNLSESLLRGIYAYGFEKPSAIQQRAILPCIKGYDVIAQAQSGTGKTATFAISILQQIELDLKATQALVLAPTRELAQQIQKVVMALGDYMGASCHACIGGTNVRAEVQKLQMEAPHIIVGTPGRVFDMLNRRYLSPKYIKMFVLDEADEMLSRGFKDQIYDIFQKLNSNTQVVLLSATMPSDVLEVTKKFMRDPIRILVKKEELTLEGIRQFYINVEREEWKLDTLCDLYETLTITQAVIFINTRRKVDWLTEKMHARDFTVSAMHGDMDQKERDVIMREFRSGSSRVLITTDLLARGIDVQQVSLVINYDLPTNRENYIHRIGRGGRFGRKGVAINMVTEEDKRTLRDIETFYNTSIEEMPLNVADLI

eIF4A1 (19-406) = eIF4A1 (19-406) (Homo sapiens, UniProt P60842 19-406); assay: X-ray crystallography
Sequence of eIF4A1 (19-406) (P60842 19-406): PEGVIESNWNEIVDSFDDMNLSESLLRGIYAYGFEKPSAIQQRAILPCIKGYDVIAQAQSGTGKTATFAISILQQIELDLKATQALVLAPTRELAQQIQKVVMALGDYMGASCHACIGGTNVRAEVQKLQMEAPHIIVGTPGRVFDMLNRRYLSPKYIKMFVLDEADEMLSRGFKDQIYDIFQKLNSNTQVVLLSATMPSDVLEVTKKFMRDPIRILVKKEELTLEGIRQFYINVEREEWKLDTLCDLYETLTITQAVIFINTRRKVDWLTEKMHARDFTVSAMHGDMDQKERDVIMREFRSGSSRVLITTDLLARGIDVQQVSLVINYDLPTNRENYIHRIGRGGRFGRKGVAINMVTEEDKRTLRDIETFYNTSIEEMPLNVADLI

Sequence of human eIF4A1 (WT) (Homo sapiens, UniProt P60842, F163L/I199M) (P60842 2-406 F163L/I199M): as the sequence (P60842 2-406) above, with F162L, I198M counted along it

Nc1ncnc2c1ncn2[C@@H]1O[C@H](COP(=O)(O)OP(=O)(O)OP(=O)(O)O)[C@@H](O)[C@H]1O [ATP] was tested, and the “UV crosslinking of γ 32P-ATP; TLC ATPase assay” value (human eIF4A1 (WT) [1]) was “neither single nor double mutations disrupt the basic features of eIF4A1” and the “UV crosslinking of γ 32P-ATP; TLC ATPase assay” value (human eIF4A1 (WT) [2]) was “tested a variety of their biochemical properties: ATP binding, ATP hydrolysis”.

B1: (AG)5 polypurine RNA (ssRNA)
RNA: AGAGAGAGAG
B1: binds (eIF4A1 (19-406)).
